# Experimental data from ChEMBL document CHEMBL5380795, “Design, Synthesis, and Bioactivity Investigation of Cyclic Lipopeptide Antibiotics Containing Eight to Nine Amino Acids” (J Med Chem, 2023).
# Columns and labels:
# Pseudomonas aeruginosa [1] = assay: Antibacterial activity against carbapenem resistant Pseudomonas aeruginosa clinical isolate 19-3 assessed as inhibition of bacterial growth incubated for 18 to 24 hrs by broth microdilution method; format: functional; settings: time 18-24 hrs
# [2] = system: Staphylococcus epidermidis; assay: Antibacterial activity against methicillin resistant Staphylococcus epidermidis clinical isolate 19-5 assessed as inhibition of bacterial growth incubated for 18 to 24 hrs by broth microdilution method; format: functional; settings: time 18-24 hrs
# Acinetobacter baumannii [3] = assay: Antibacterial activity against carbapenem resistant Acinetobacter baumannii clinical isolate 19-8 assessed as inhibition of bacterial growth incubated for 18 to 24 hrs by broth microdilution method; format: functional; settings: time 18-24 hrs
# Acinetobacter baumannii [4] = assay: Antibacterial activity against oxacillinase-27 producing Acinetobacter baumannii NCTC 13304 assessed as inhibition of bacterial growth incubated for 18 to 24 hrs by broth microdilution method; format: functional; settings: time 18-24 hrs
# Pseudomonas aeruginosa [5] = assay: Antibacterial activity against Pseudomonas aeruginosa clinical isolate 19-1 assessed as inhibition of bacterial growth incubated for 18 to 24 hrs by broth microdilution method; format: functional; settings: time 18-24 hrs
# Pseudomonas aeruginosa [6] = assay: Antibacterial activity against Pseudomonas aeruginosa ATCC 27853 assessed as inhibition of bacterial growth incubated for 18 to 24 hrs by broth microdilution method; format: functional; settings: time 18-24 hrs
# Klebsiella pneumoniae [7] = assay: Antibacterial activity against KPC producing Klebsiella pneumoniae ATCC BAA-1705 assessed as inhibition of bacterial growth incubated for 18 to 24 hrs by broth microdilution method; format: functional; settings: time 18-24 hrs
# Klebsiella pneumoniae [8] = assay: Antibacterial activity against carbapenem resistant Klebsiella pneumoniae clinical isolate 19-15 assessed as inhibition of bacterial growth incubated for 18 to 24 hrs by broth microdilution method; format: functional; settings: time 18-24 hrs
# Escherichia coli [9] = assay: Antibacterial activity against Escherichia coli ATCC BAA-2523 assessed as inhibition of bacterial growth incubated for 18 to 24 hrs by broth microdilution method; format: functional; settings: time 18-24 hrs
# Pseudomonas aeruginosa [10] = assay: Antibacterial activity against carbapenem resistant Pseudomonas aeruginosa clinical isolate 17-1 assessed as inhibition of bacterial growth incubated for 18 to 24 hrs by broth microdilution method; format: functional; settings: time 18-24 hrs
# Escherichia coli [11] = assay: Antibacterial activity against Escherichia coli clinical isolate 19-2 assessed as inhibition of bacterial growth incubated for 18 to 24 hrs by broth microdilution method; format: functional; settings: time 18-24 hrs
# [12] = Selectivity index, ratio of IC50 for cytotoxicity against human HK-2 cells to MIC for antibacterial activity against Escherichia coli ATCC BAA-2523; format: toxicity, cell-based
# Staphylococcus aureus [13] = assay: Antibacterial activity against Staphylococcus aureus ATCC 29213 assessed as inhibition of bacterial growth incubated for 18 to 24 hrs by broth microdilution method; format: functional; settings: time 18-24 hrs
# [14] = system: Staphylococcus epidermidis; assay: Antibacterial activity against methicillin resistant Staphylococcus epidermidis clinical isolate 19-6 assessed as inhibition of bacterial growth incubated for 18 to 24 hrs by broth microdilution method; format: functional; settings: time 18-24 hrs
# Escherichia coli [15] = assay: Antibacterial activity against KPC producing Escherichia coli ATCC BAA-2340 assessed as inhibition of bacterial growth incubated for 18 to 24 hrs by broth microdilution method; format: functional; settings: time 18-24 hrs
# Escherichia coli [16] = assay: Antibacterial activity against Escherichia coli NCTC 13353 assessed as inhibition of bacterial growth incubated for 18 to 24 hrs by broth microdilution method; format: functional; settings: time 18-24 hrs
# [17] = Cytotoxicity against human HK-2 cells assessed as inhibition of cell growth incubated for 72 hrs by CCK-8 assay; format: toxicity, cell-based
# Staphylococcus aureus [18] = assay: Antibacterial activity against methicillin resistant Staphylococcus aureus ATCC 33591 assessed as inhibition of bacterial growth incubated for 18 to 24 hrs by broth microdilution method; format: functional; settings: time 18-24 hrs
# Klebsiella pneumoniae [19] = assay: Antibacterial activity against carbapenem resistant Klebsiella pneumoniae clinical isolate 19-17 assessed as inhibition of bacterial growth incubated for 18 to 24 hrs by broth microdilution method; format: functional; settings: time 18-24 hrs
SMILES,MIC (Pseudomonas aeruginosa [1]),MIC [2],MIC (Acinetobacter baumannii [3]),MIC (Acinetobacter baumannii [4]),MIC (Pseudomonas aeruginosa [5]),MIC (Pseudomonas aeruginosa [6]),MIC (Klebsiella pneumoniae [7]),MIC (Klebsiella pneumoniae [8]),MIC (Escherichia coli [9]),MIC (Pseudomonas aeruginosa [10]),MIC (Escherichia coli [11]),selectivity ratio [12],MIC (Staphylococcus aureus [13]),MIC [14],MIC (Escherichia coli [15]),MIC (Escherichia coli [16]),IC50 at 72 h [17],MIC (Staphylococcus aureus [18]),MIC (Klebsiella pneumoniae [19])
CCCCCCCCCC(=O)N[C@H](CCN)C(=O)N[C@H]1CCNC(=O)[C@H]([C@@H](C)O)NC(=O)[C@H](CCN)NC(=O)[C@H](CCN)NC(=O)[C@H](CC(C)C)NC(=O)[C@@H](Cc2ccc(N)cc2)NC(=O)[C@H](CCN)NC1=O,> 64 µg/mL,16 µg/mL,> 64 µg/mL,> 64 µg/mL,> 64 µg/mL,> 64 µg/mL,> 64 µg/mL,> 64 µg/mL,64 µg/mL,> 64 µg/mL,64 µg/mL,3.6,> 64 µg/mL,32 µg/mL,64 µg/mL,> 64 µg/mL,228 µg/mL,> 64 µg/mL,> 64 µg/mL
CCCCCCCCCC(=O)N[C@H](CCN)C(=O)N[C@H]1CCNC(=O)[C@H]([C@@H](C)O)NC(=O)[C@H](CCN)NC(=O)[C@H](CCN)NC(=O)[C@H](CC(C)C)NC(=O)[C@@H](CC(C)C)NC(=O)[C@H](CCCN)NC1=O,> 64 µg/mL,4 µg/mL,> 64 µg/mL,> 64 µg/mL,> 64 µg/mL,> 64 µg/mL,> 64 µg/mL,> 64 µg/mL,> 64 µg/mL,> 64 µg/mL,> 64 µg/mL,< 4.3,> 64 µg/mL,32 µg/mL,> 64 µg/mL,> 64 µg/mL,277 µg/mL,> 64 µg/mL,> 64 µg/mL
CCCCCCCCCC(=O)N[C@H](CCN)C(=O)N[C@H]1CCNC(=O)[C@H](CO)NC(=O)[C@H](CCN)NC(=O)[C@H](CCN)NC(=O)[C@H](Cc2ccccc2)NC(=O)[C@@H](CC(C)C)NC(=O)[C@H](CCN)NC1=O,16 µg/mL,4 µg/mL,> 64 µg/mL,> 64 µg/mL,16 µg/mL,64 µg/mL,8 µg/mL,32 µg/mL,16 µg/mL,64 µg/mL,16 µg/mL,9.1,64 µg/mL,2 µg/mL,16 µg/mL,32 µg/mL,146 µg/mL,> 64 µg/mL,64 µg/mL
CCCCCCCCCC(=O)N[C@H](CCN)C(=O)N[C@H]1CCNC(=O)[C@H]([C@@H](C)O)NC(=O)[C@H](CCN)NC(=O)[C@H](CCN)NC(=O)[C@@H](CC(C)C)NC(=O)[C@@H](CC(C)C)NC(=O)[C@H](CCN)NC1=O,64 µg/mL,2 µg/mL,> 64 µg/mL,> 64 µg/mL,64 µg/mL,64 µg/mL,> 64 µg/mL,64 µg/mL,64 µg/mL,64 µg/mL,64 µg/mL,1.4,> 64 µg/mL,32 µg/mL,64 µg/mL,64 µg/mL,87.5 µg/mL,> 64 µg/mL,> 64 µg/mL
CCCCCCCCCC(=O)N[C@H](CCN)C(=O)N[C@H]1CCNC(=O)[C@H]([C@@H](C)O)NC(=O)[C@H](CCN)NC(=O)[C@H](CCN)NC(=O)[C@H](CC(C)C)NC(=O)[C@@H](Cc2ccc(C(C)(C)C)cc2)NC(=O)[C@H](CCN)NC1=O,2 µg/mL,0.5 µg/mL,16 µg/mL,16 µg/mL,4 µg/mL,2 µg/mL,2 µg/mL,4 µg/mL,1 µg/mL,4 µg/mL,2 µg/mL,15.9,4 µg/mL,2 µg/mL,2 µg/mL,4 µg/mL,15.9 µg/mL,4 µg/mL,2 µg/mL
CCCCCCCC(=O)N[C@H](CCN)C(=O)N[C@H]1CCNC(=O)[C@H](CC(C)C)NC(=O)[C@H](CCN)NC(=O)[C@H](CCN)NC(=O)[C@H](CC(C)C)NC(=O)[C@@H](CC(C)C)NC(=O)[C@H](CCN)NC1=O,4 µg/mL,8 µg/mL,16 µg/mL,8 µg/mL,8 µg/mL,1 µg/mL,2 µg/mL,16 µg/mL,32 µg/mL,2 µg/mL,32 µg/mL,6.2,> 64 µg/mL,64 µg/mL,2 µg/mL,16 µg/mL,198 µg/mL,> 64 µg/mL,16 µg/mL
